Experiments:
A549 = assay: In vitro cell viability combination assay (CellTiter-Glo); settings: 72 hr
Experimental: (§6) General Method: Cells are grown in their respective growth media, supplemented with 10% fetal bovine serum unless otherwise noted. […] A portion of each plate is used for positive controls (no agent is added), while another portion of each plate is used for negative controls (no cells are added). Viability is assessed with CellTiter-Glo® Cell Viability reagent used according to manufacturer's instructions (Promega). Luminescence is measured using a LEADseeker imaging system (GE Healthcare).
(§7) The viability data is normalized separately for each plate by scaling the data so that the median of the negative controls is 0 and the median of the positive controls is 100. More formally,
(§8) [formula] where Vi is the normalized viability of the i^th well, Ui is the raw viability measurement, median (U) is the median of the negative controls, and median (U+) is the median of the positive controls. After normalization, the controls are discarded.
(§9) where E1, E2, E3, E4, I1, I2, I3, S1, S2, S3, and S4 are parameters, CA and CB are the respective concentrations of agents A and B, and V is the normalized viability measurement. It is assumed that the error values are independent and identically distributed normal random variables.
(§10) The Combination Index is computed based on an isobologram, which is a slice of the dose response surface with constant viability. For the present analysis, the 50% isobologram, which is the dose contour that has 50% viability, is used. […] Since the choice of (DA, DB) can be arbitrary, the constraint DA/DB=EC50A/EC50B is used.
(§11) In such cases, Nonlinear Blending can be used as an alternative measure of synergy or additivity. Nonlinear Blending is found by considering a slice of the dose response surface that intersects both concentration axes and runs parallel to the viability axis. Let VA and VB be the viability where the slice intersects the drug A and B axes, respectively. Let Vmax and Vmin be the maximum and minimum viabilities along the slice. Let NLBS=min(VA,VB)−Vmin NLBA=Vmax−max(VA,VB) Define the Nonlinear Blending value to be NLBS if NLBS>NLBA and −NLBA otherwise.
(§12) After completing the analysis of individual plates, the results are combined across the replicates. For a given measure and a set of replicates, the overall mean and standard error are computed using weighted averaging. A null mean, which corresponded to an additive effect, is then compared with the overall mean. The null mean is 1 for the Combination Index and 0 for Nonlinear Blending. Next, a two sized Z-test is performed based on the estimated mean and standard error. This produces a p-value for each measure and each cell line.
(§13) After computing the mean, standard error, and p-value for each set of replicates, these values require interpretation. Thus, a standard procedure is used to produce a classification (synergy, additivity, subadditivity, antagonism, or inconclusive) in each case. If the Combination Index exists for more than half of the replicates, then these measures are used to make the classification.
(§14) Consider the case where the Combination Index is used to make the classification. If the p-value is greater than 0.05, the estimate for the Combination Index is not statistically different from 1. However, if the standard error is also very large, then the estimate is too uncertain to be informative. […] Otherwise, the classification is “Additivity”. When the p-value is less than 0.05, the estimate for the Combination Index is statistically different from 1. However, if the mean is still close to 1, then the difference is not of practical significance. Thus, the result is classified based on the mean. A mean in the range (0.8, 1.2) is considered close enough to 1 to be classified as Additivity. A mean in the range (0, 0.8) is considered low enough to be classified as Synergy. […] The threshold value of 2 can be derived from the definition of the Combination Index.

NCI-H69 xenograft model = assay: Combination of cisplatin and MLN4924 in NCI-H69 xenograft model; assay type: in vivo, mice; settings: 4 mg/kg Cisplatin Q4Dx3 IP
Experimental: (§1) NCI-H69 or NCI-H82 small cell lung tumor fragments (30- to 40-mg) are implanted into the subcutaneous space in the area of the right flank of NCr nu/nu mice (7-10 weeks, Charles River Laboratories, Inc, Frederick Md. or Wilmington, Mass.) using a 12-gauge trocar.
(§2) Tumors are measured twice weekly using a vernier caliper. Tumor volumes are calculated using standard procedures (0.5×(length×width^2)). […] Tumor size and body weight are measured approximately twice a week for the duration of the study. Mice are euthanized when their tumor volume reached 10% of their body weight, or when the average tumor volume of a treatment or control group reached approximately 2000 mm^3. Tumor growth continued to be monitored after the dosing period in some studies. Average tumor volume is reported as a function of time for selected groups of selected studies in Figures A, B, and C.
(§3) Measurements from day 0 to 18, 21 or 22 are analyzed as specified in Tables 4-9. All tumor volumes have a value of 1 added to them before log10 transformation. For each animal, the log tumor volume at day 0 is subtracted from the log tumor volume on the subsequent days. This difference vs. time is used to calculate an area under the curve (AUC) for each animal using the trapezoid rule. […] The synergy score for the combination of agents A and B is defined as 100*(mean(AUCAB)−mean(AUCA)−mean(AUCB)+mean(AUCctl))/mean(AUCctl): where AUCAB, AUCA, AUCB, and AUCctl are the AUC values for animals in the combination group, the A group, the B group, and the control group, respectively. The standard error of the synergy score is computed based on the variation in the AUC values among the animals. […] If the P-value is above 0.05, then the combination is considered to be additive. If the P-value is below 0.05, and the synergy score is less than zero, then the combination is considered to be synergistic. […] Otherwise, the combination is classified as antagonistic.

NCI-H69 = assay: In vitro cell viability combination assay (CellTiter-Glo); assay type: cell-based; settings: agent combined with MLN4924, vehicle DMSO, 96 hr
From the text: After normalization, the controls are discarded.
Otherwise, the classification is “Additivity”.

NCI-H82 = assay: as above; settings: agent combined with MLN4924, vehicle DMSO, 96 hr
Experimental: as §6, §7, §8, §9, §10, §11, §12, §13, §14

NCI-H82 xenograft model = assay: Combination of cisplatin and MLN4924 in NCI-H82 xenograft model; assay type: in vivo, mice
Experimental: as §1, §2, §3

NCI-H510 = assay: In vitro cell viability combination assay (CellTiter-Glo); settings: agent combined with MLN4924, vehicle DMSO, 96 hr
Experimental: as §6, §7, §8, §9, §10, §11, §12, §13, §14

HCT116 = assay: as above; settings: 48 hr
Experimental: as §6, §7, §8, §9, §10, §11, §12, §13, §14

NCI-H209 = assay: as above; settings: agent combined with MLN4924, vehicle DMSO, 96 hr
Experimental: as §6, §7, §8, §9, §10, §11, §12, §13, §14

[1] = test system: NCI-H1650 xenograft model; assay: Combination of docetaxel and MLN4924 in NCI-H1650 xenograft model; assay type: in vivo, mice
From the text: NCI-H1650 (2×10^6) tumor cells in RPMI-1640 media are mixed with an equal volume of Matrigel (BD Biosciences) and aseptically injected into the subcutaneous space in the right dorsal flank of Balb/c Nude mice (age 4-6 weeks, Shanghai SINO-British SIPPR/BK Lab Animal Ltd.) using a 25-gauge needle.
(§4) Docetaxel (Henry Schein, Inc., Pittsburgh Pa., Qilu Pharmaceutical Co., Ltd., Jinan, Shandong, China, and Sanofi-Aventis) is formulated in 0.9% saline and administered by intravenous injection (IV) once weekly (QW) at 5 mg/kg or 10 mg/kg.
as §2, §3

LU1143 xenograft model = assay: Combination of docetaxel or carboplatin and MLN4924 in LU1143 xenograft model; assay type: in vivo, mice; settings: 10 mg/kg docetaxel QW IV
Experimental: as §4
(§5) Carboplatin (CARBOplatin Injection, Hospira, Inc., Qilu Pharmaceutical Co., Ltd. Jinan, Shandong, China, and Teva Gry-Pharma GmbH, Ulm, Germany) is formulated in 0.9% saline and administered by IP injection once weekly (QW) at 50 mg/kg. The once weekly schedule is also described as every 7 days (Q7D).
as §2
Measurements from day 0 to 18, 21 or 22 are analyzed as specified in Tables 4-9. All tumor volumes have a value of 1 added to them before log10 transformation. For each animal, the log tumor volume at day 0 is subtracted from the log tumor volume on the subsequent days. This difference vs. time is used to calculate an area under the curve (AUC) for each animal using the trapezoid rule. […] The synergy score for the combination of agents A and B is defined as 100*(mean(AUCAB)−mean(AUCA)−mean(AUCB)+mean(AUCctl))/mean(AUCctl): where AUCAB, AUCA, AUCB, and AUCctl are the AUC values for animals in the combination group, the A group, the B group, and the control group, respectively. The standard error of the synergy score is computed based on the variation in the AUC values among the animals. […] If the P-value is above 0.05, then the combination is considered to be additive. […]

LXFE409 xenograft model = assay: Combination of docetaxel or carboplatin and MLN4924 in LXFE409 xenograft model; assay type: in vivo, mice
Experimental: LXFE409 squamous non small cell lung cancer tumor fragments are implanted into the subcutaneous space in the flank of female NMRI nu/nu mice (5-7 weeks, Janvier Labs, Saint Berthevin, France).
as §4, §5, §2, §3

[2] = test system: PHTX02B breast xenograft model; assay: Combination of docetaxel and MLN4924 in PHTX02B xenograft model; assay type: in vivo, mice
From the text: The PHTX02B breast xenograft model was established from a patient-derived tumor collected during surgery from a person with invasive ductal carcinoma classified as triple negative breast cancer (ER−/PR−/Her2−) by IHC. PHTX02B tumor fragments (approximately 2×2×3 mm^3) are implanted into the subcutaneous space in the right dorsal flank of female SCID-NOD mice (age 5-7 weeks, Jackson Laboratory, Bar Harbor, Me.) using a 13-gauge trocar.
as §4, §2, §3

NCI-H526 = assay: In vitro cell viability combination assay (CellTiter-Glo); settings: agent combined with MLN4924, vehicle DMSO, 96 hr
Experimental: as §6, §7, §8, §9, §10, §11, §12, §13, §14

[3] = agent combined with MLN4924, vehicle DMSO
[4] = agent combined with MLN4924, vehicle PBS

Structure (SMILES)	Combination Index (A549; [3])	Nonlinear Blending (A549; [3])	Nonlinear Blending (A549; [4])	Nonlinear Blending (NCI-H69)	Combination Index (NCI-H82)	Nonlinear Blending (NCI-H82)	Nonlinear Blending (NCI-H510)	Combination Index (HCT116; [3])	Nonlinear Blending (HCT116; [3])	Nonlinear Blending (HCT116; [4])	Combination Index (NCI-H209)	Nonlinear Blending (NCI-H209)	Nonlinear Blending (NCI-H526)	also measured
N.N.[Cl][Pt][Cl] [cisplatin]	0.65 ± 0.03	11 ± 5	10 ± 1	−7 ± 3	0.81 ± 0.07	10 ± 2	20 ± 3	0.76 ± 0.02	21 ± 1	14 ± 6	1.28 ± 0.08	−15 ± 3	–	Combination Index (A549; [4]): 0.75 ± 0.05; average tumor volume day 22 (NCI-H69 xenograft model): 213.6 mm^3; Combination Index (NCI-H69): 1.28 ± 0.2; average tumor volume day 22 (NCI-H82 xenograft model; 2 mg/kg cisplatin Q4Dx3 IP): 628.7 mm^3; average tumor volume day 22 (NCI-H82 xenograft model; 4 mg/kg cisplatin Q4Dx3 IP): 445.2 mm^3; Combination Index (HCT116; [4]): 0.76 ± 0.09
CC(=O)O[C@@]12CO[C@@H]1C[C@H](O)[C@@]1(C)C(=O)[C@H](O)C3=C(C)[C@@H](OC(=O)[C@H](O)[C@@H](NC(=O)OC(C)(C)C)c4ccccc4)C[C@@](O)([C@@H](OC(=O)c4ccccc4)[C@H]21)C3(C)C [docetaxel]	1.00 ± 0.1	1 ± 1	–	–	1.45 ± 0.09	−11 ± 2	−13 ± 4	1.01 ± 0.09	7 ± 2	–	1.27 ± 0.09	−16 ± 5	−23 ± 3	average tumor volume day 21 ([1]; 5 mg/kg docetaxel QW IV): 719.2 mm^3; average tumor volume day 21 ([1]; 10 mg/kg docetaxel QW IV): 282.7 mm^3; average tumor volume day 21 (LU1143 xenograft model): 498.9 mm^3; Combination Index (NCI-H510): 1.15 ± 0.08; tumor course after the treatment period, to end of study on day 95 (in words) (LXFE409 xenograft model; LXFE409 sqNSCLC model, FIG. 4, MLN4924 120 mg/kg SC Q2Dx3/week for 3 weeks, docetaxel 10 mg/kg IV QW for 3 weeks, single agents or combination): regrew after the treatment period ended; average tumor volume day 21 (LXFE409 xenograft model; LXFE409 xenograft, 10 mg/kg docetaxel QW IV): 44.6 mm^3; tumor growth during the treatment period (in words) ([2]; PHTX02B breast xenograft, FIG. 1, MLN4924 SC 60 mg/kg BID 5 days on/5 days off, docetaxel 5 mg/kg IV QW, single agents or their combination): inhibited tumor growth compared to the control vehicle group; average tumor volume day 21 ([2]; PHTX02B xenograft, 5 mg/kg docetaxel QW IV): 736.3 mm^3; Combination Index (NCI-H526): 1.38 ± 0.06
O=C1[O][Pt]2([NH][C@@H]3CCCC[C@H]3[NH]2)[O]C1=O [oxaliplatin]	–	–	2 ± 2	11 ± 3	–	6 ± 2	2 ± 3	–	–	10 ± 5	–	−5 ± 2	−8 ± 4	–
CC(=O)O[C@H]1C(=O)[C@@]2(C)[C@H]([C@H](OC(=O)c3ccccc3)[C@]3(O)C[C@H](OC(=O)[C@H](O)[C@@H](NC(=O)c4ccccc4)c4ccccc4)C(C)=C1C3(C)C)[C@]1(OC(C)=O)CO[C@@H]1C[C@@H]2O [paclitaxel]	–	−6 ± 0.9	–	−16 ± 4	–	−16 ± 2	−22 ± 4	–	−14 ± 2	–	–	−8 ± 3	−26 ± 3	–

— patent publication US10786505B2, “Administration of NEDD8-activating enzyme inhibitor and chemotherapeutic agents” (Millennium Pharmaceuticals, Inc., priority 2013, dated 2020)
